Data as given in patent US20060258000A1, “Use of steady-state oxygen gradients to modulate animal cell functions” (priority 2003, published 2006).

Assays:
PEPCK = experiment: Zonal induction of PEPCK in hepatocyte bioreactor under oxygen gradient, Western blot; format: cell-based, rat
Source text: Hepatocyte Isolation And Culture.
Bioreactor And Flow Circuit.

CYP2B [1] = system: CYP2B
Procedure: (§1) Primary rat hepatocytes from 6-well plates or chamber slides were lysed and scraped in SDS buffered (10 mM Tris/HCl (ph 7.4), 0.1% SDS). Samples were added to microcentrifuge tubes with 5 μl of PMSF, homogenized with a pestle, and centrifuged at 16,200 g for 5 minutes. Total protein content in the supernatant was determined using the DC protein assay (Bio-Rad, Hercules, Calif.) and used to normalize sample loading. Samples prepared in sample buffer were loaded (10-20 μg/well) for electrophoresis on a 10% polyacrylamide gel. After overnight transfer on to a PVDF membrane, blots were incubated with a blocking buffered (20 mM Tris-Cl (pH 7.4), 500 mM NaCl, 0.1% Tween 20, and 5% (w/v) milk powder) and washed with buffer without milk powder, incubation for 1 h with primary antibody against rat PEPCK or rat CYP2B (Genset, Woburn, Mass.) was followed by washing and incubation with either anti-sheep (PEPCK) or anti-goat (CYP2B) HRP-conjugated secondary antibody for 45 minutes. After washing, the Pierce SuperSignal chemiluminescence reagent was used for detection. All electrophoresis gels were run with molecular mass markers to verify PEPCK bands (67 kDa) or CYP2B1/2 bands (56 kDa). Optical density measurements were obtained using scanned blot images with 1d gelscan software (Metamorph).

CYP2B [2] = experiment: Zonal induction of CYP2B in hepatocyte bioreactor under oxygen gradient, Western blot
Procedure: Bioreactor cultures were perfused with media and allowed to reach steady state before the addition of inductive agents of glucagon for PEPCK up-regulation or phenobarbitol (PB) and EGF for CYP2B1 induction. […] Media with 0.75 mM PB and 0.16 nM EGF was perfused for 36 h to induced CYB2B expression before cell lysis. Cell lysates were collected at the end of each experiment for electrophoretic analysis.
Primary rat hepatocytes from 6-well plates or chamber slides were lysed and scraped in SDS buffered (10 mM Tris/HCl (ph 7.4), 0.1% SDS). Samples were added to microcentrifuge tubes with 5 μl of PMSF, homogenized with a pestle, and centrifuged at 16,200 g for 5 minutes. Total protein content in the supernatant was determined using the DC protein assay (Bio-Rad, Hercules, Calif.) and used to normalize sample loading. Samples prepared in sample buffer were loaded (10-20 μg/well) for electrophoresis on a 10% polyacrylamide gel.

CYP2B [3] = experiment: CYP2B protein induction in static and perfused co-cultures, Western blot
Procedure: as §1

CYP3A = CYP3A protein induction in static and perfused co-cultures, Western blot
[4] = cultures perfused with 200 μM PB, 36 hours
[5] = static cultures induced with PB

Compound: glucagon
- PEPCK protein levels in 4 bioreactor regions (PEPCK; 10 nM glucagon 8 h, inlet pO2 76 mmHg, 0.5 mL/min (physiologic gradient)): maximal PEPCK protein levels at the inlet decreasing to half maximal at the outlet
- PEPCK induction distribution (PEPCK; 10 nM glucagon, inlet pO2 158 mmHg, 0.5 ml/min (supraphysiologic gradient)): heterogenous induction of PEPCK was abrogated

Compound: C[C@@H]1C[C@H]2[C@@H]3CCC4=CC(=O)C=C[C@]4(C)[C@@]3(F)[C@@H](O)C[C@]2(C)[C@@]1(O)C(=O)CO [DEX, dexamethasone]
- CYP2B induction and localization (CYP2B [1]): high levels which were localized to inlet regions

Compound: CCC1(c2ccccc2)C(=O)NC(=O)NC1=O [PB, phenobarbital]
- CYP2B induction along the chamber (CYP2B [2]; 0.75 mM PB with 0.16 nM EGF, 36 h, inlet pO2 76 mmHg, 0.5 mL/min (physiologic gradient)): increasing CYP2B induction along the length of the chamber
- CYP2B levels from inlet to outlet (CYP2B [2]; PB with EGF, supraphysiologic oxygen gradient, same flow rate): did not result in significant differences in CYP2B levels from inlet to outlet
- CYP2B expression over controls (CYP2B [3]; [4]): Dramatic expression of both CYPs over controls
- CYP2B spatial distribution along bioreactor (CYP2B [3]; [4]): levels were highest in the lower-oxygen outlet regions
- CYP2B expression (CYP2B [3]; [5]): moderate CYP2B expression
- CYP3A expression over controls (CYP3A; [4]): Dramatic expression of both CYPs over controls
- CYP3A spatial distribution along bioreactor (CYP3A; [4]): increasing expression from inlet to outlet
- CYP3A expression (CYP3A; [5]): low CYP3A
